IC50 data for 31 molecules are collected here from patent US8304419B2, “Chemical compounds” (priority 2007, dated 2012).

Structures can show the parent of a compound that is named as a salt. Bounds are passed on as bounds.

One test relates to HIV wild type (WTRVA). The test can be described thus: HeLa cell assay, wild type virus (WTRVA). The class given is cell-based, HIV-1. The following applies: Human immunodeficiency virus 1, HeLa, HeLa cell assay; read-out: IC50 against WTRVA. More on the design: scale not given here.
In the case of `C=C(C)c1cc(C#N)cc(Oc2c(Cl)ccc(CNC(=O)c3[nH]cnc3Cl)c2F)c1` [Example 158, 4-chloro-N-[(4-chloro-3-{[3-cyano-5-(1-methylethenyl)phenyl]oxy}-2-fluorophenyl)methyl]-1H-imidazole-5-carboxamide], the IC50 was below 10 nM.
The same measure, in the same setting: the figure for `CCNc1nc(Cl)c(C(=O)NCc2ccc(Cl)c(Oc3cc(Cl)cc(C#N)c3)c2F)[nH]1` [Example 362, 4-chloro-N-({4-chloro-3-[(3-chloro-5-cyanophenyl)oxy]-2-fluorophenyl}methyl)-2-(ethylamino)-1H-imidazole-5-carboxamide trifluoroacetate] is below 10 nM; for `N#Cc1cc(Cl)cc(Oc2c(Br)ccc(CNC(=O)c3[nH]c(N)nc3Br)c2F)c1` [Example 237, 2-amino-4-bromo-N-({4-bromo-3-[(3-chloro-5-cyanophenyl)oxy]-2-fluorophenyl}methyl)-1H-imidazole-5-carboxamide trifluoroacetate] it is below 10 nM.
Still for that read-out and setting: for `Cc1nc(Cl)c(C(=O)NCc2ccc(C3CC3)c(Oc3cc(Cl)cc(C#N)c3)c2F)[nH]1` [Example 270, 4-Chloro-N-({3-[(3-chloro-5-cyanophenyl)oxy]-4-cyclopropyl-2-fluorophenyl}methyl)-2-methyl-1H-imidazole-5-carboxamide] the value was below 10 nM; for `CCc1ccc(CNC(=O)c2[nH]c(N)nc2Cl)c(F)c1Oc1cc(Cl)cc(C#N)c1` [Example 251, 2-amino-4-chloro-N-({3-[(3-chloro-5-cyanophenyl)oxy]-4-ethyl-2-fluorophenyl}methyl)-1H-imidazole-5-carboxamide], below 10 nM.
Same read-out and setting: the figure for `CC#Cc1cc(C#N)cc(Oc2c(Cl)ccc(CNC(=O)c3[nH]cnc3Cl)c2F)c1` [Example 317, 4-chloro-N-[(4-chloro-3-{[3-cyano-5-(1-propyn-1-yl)phenyl]oxy}-2-fluorophenyl)methyl]-1H-imidazole-5-carboxamide] is below 10 nM.
For `Cc1cc(C#N)cc(Oc2c(Cl)ccc(CNC(=O)c3[nH]c(C)nc3Cl)c2F)n1` [Example 271, 4-Chloro-N-({4-chloro-3-[(4-cyano-6-methyl-2-pyridinyl)oxy]-2-fluorophenyl}methyl)-2-methyl-1H-imidazole-5-carboxamide], the IC50 is below 10 nM.
Still for that read-out and setting: the figure for `C=Cc1ccc(CNC(=O)c2[nH]c(C)nc2Cl)c(F)c1Oc1cc(Cl)cc(C#N)c1` [Example 269, 4-Chloro-N-({3-[(3-chloro-5-cyanophenyl)oxy]-4-ethenyl-2-fluorophenyl}methyl)-2-methyl-1H-imidazole-5-carboxamide] is below 10 nM.
The same measure, in the same setting: for `N#Cc1cc(Cl)cc(Oc2c(C(F)F)ccc(CNC(=O)c3[nH]cnc3Cl)c2F)c1` [Example 252, 4-chloro-N-{[3-[(3-chloro-5-cyanophenyl)oxy]-4-(difluoromethyl)-2-fluorophenyl]methyl}-1H-imidazole-5-carboxamide] the value was below 10 nM; for `C=CCc1cc(C#N)cc(Oc2c(Cl)ccc(CNC(=O)c3[nH]cnc3Cl)c2F)c1` [Example 156, 4-chloro-N-[(4-chloro-3-{[3-cyano-5-(2-propen-1-yl)phenyl]oxy}-2-fluorophenyl)methyl]-1′-1H-imidazole-5-carboxamide], below 10 nM.

The test is the same for the next values; noted with them: Human immunodeficiency virus 1, HeLa, HeLa-CD4-LTR-β-gal cells, wild type virus; read-out: WTRVA activity level.
On to `COc1ccc2[nH]c(C(=O)NCc3ccc(Cl)c(Oc4cc(Cl)cc(C#N)c4)c3F)cc2c1Br` [Example 73, 4-bromo-N-({4-chloro-3-[(3-chloro-5-cyanophenyl)oxy]-2-fluorophenyl}methyl)-5-(methyloxy)-1H-indole-2-carboxamide trifluoroacetate], for which the IC50 fell in the range of 10 to 1000 nM.
Consider `N#Cc1cc(Cl)cc(Oc2c(Cl)ccc(CNC(=O)c3cc4cc(OC(F)(F)F)ccc4[nH]3)c2F)c1` [Example 27, N-({4-chloro-3-[(3-chloro-5-cyanophenyl)oxy]-2-fluorophenyl}methyl)-5-[(trifluoromethyl)oxy]-1H-indole-2-carboxamide], for which the IC50 fell in the range of 10 to 1000 nM.
The same measure, in the same setting: the figure for `Cc1nnsc1C(=O)NCc1ccc(Cl)c(Oc2cc(Cl)cc(C#N)c2)c1F` [Example 91, N-({4-chloro-3-[(3-chloro-5-cyanophenyl)oxy]-2-fluorophenyl}methyl)-4-methyl-1,2,3-thiadiazole-5-carboxamide] is below 10 nM.
The same measure, in the same setting: the figure for `N#Cc1cc(Cl)cc(Oc2c(Cl)ccc(CNC(=O)c3cc([N+](=O)[O-])c[nH]3)c2F)c1` [Example 70, N-({4-chloro-3-[(3-chloro-5-cyanophenyl)oxy]-2-fluorophenyl}methyl)-4-nitro-1H-pyrrole-2-carboxamide trifluoroacetate] is below 10 nM.
As to `COC(=O)c1ccc(C(=O)NCc2ccc(Cl)c(Oc3cc(Cl)cc(C#N)c3)c2)cc1` [Example 11, Methyl 4-{[({4-chloro-3-[(3-chloro-5-cyanophenyl)oxy]phenyl}methyl)amino]carbonyl}benzoate], the IC50 was above 1000 nM.
Same read-out and setting: the figure for `N#Cc1cc(Cl)cc(Oc2c(Cl)ccc(CNC(=O)c3cc4cc(OCCN5CCOCC5)ccc4[nH]3)c2F)c1` [Example 103, N-({4-chloro-3-[(3-chloro-5-cyanophenyl)oxy]-2-fluorophenyl}methyl)-5-{[2-(4-morpholinyl)ethyl]oxy}-1H-indole-2-carboxamide] is below 10 nM; for `N#Cc1cc(Cl)cc(Oc2c(Cl)ccc(CNC(=O)c3[nH]c4cc(O)ccc4c3Br)c2F)c1` [Example 61, 3-bromo-N-({4-chloro-3-[(3-chloro-5-cyanophenyl)oxy]-2-fluorophenyl}methyl)-6-hydroxy-1H-indole-2-carboxamide trifluoroacetate] it is below 10 nM; for `N#Cc1cc(Cl)cc(Oc2c(Cl)ccc(CNC(=O)c3cc4ccc(C#N)cc4[nH]3)c2F)c1` [Example 79, N-({4-chloro-3-[(3-chloro-5-cyanophenyl)oxy]-2-fluorophenyl}methyl)-6-cyano-1H-indole-2-carboxamide trifluoroacetate] it is below 10 nM.
Consider `CCCc1nc(Cl)c(C(=O)NCc2ccc(Cl)c(Oc3cc(Cl)cc(C#N)c3)c2F)[nH]1` [Example 139, 4-chloro-N-({4-chloro-3-[(3-chloro-5-cyanophenyl)oxy]-2-fluorophenyl}methyl)-2-propyl-1H-imidazole-5-carboxamide], for which the IC50 is below 10 nM.
As for `N#Cc1cc(Cl)cc(Oc2c(Cl)ccc(CNC(=O)c3csc(-c4cccnc4)n3)c2F)c1` [Example 98, N-({4-chloro-3-[(3-chloro-5-cyanophenyl)oxy]-2-fluorophenyl}methyl)-2-(3-pyridinyl)-1,3-thiazole-4-carboxamide trifluoroacetate], the IC50 is below 10 nM.
Still for that read-out and setting: for `COc1ccc2[nH]c(C(=O)NCc3ccc(Cl)c(Oc4cc(Cl)cc(C#N)c4)c3F)c(NC(C)=O)c2c1` [Example 56, 3-(acetylamino)-N-({4-chloro-3-[(3-chloro-5-cyanophenyl)oxy]-2-fluorophenyl}methyl)-5-(methyloxy)-1H-indole-2-carboxamide trifluoroacetate] the value was 10 to 1000 nM; for `N#Cc1cc(Cl)cc(Oc2c(Cl)ccc(CNC(=O)c3ccno3)c2F)c1` [Example 93, N-({4-chloro-3-[(3-chloro-5-cyanophenyl)oxy]-2-fluorophenyl}methyl)-5-isoxazolecarboxamide], 10 to 1000 nM; for `N#Cc1cc(Cl)cc(Oc2c(Cl)ccc(CNC(=O)c3[nH]c(C4CC4)nc3Cl)c2F)c1` [Example 136, 4-chloro-N-({4-chloro-3-[(3-chloro-5-cyanophenyl)oxy]-2-fluorophenyl}methyl)-2-cyclopropyl-1H-imidazole-5-carboxamide trifluoroacetate], below 10 nM.
On the same count and under the same terms, the figure for `N#Cc1cc(Cl)cc(Oc2c(Cl)ccc(CNC(=O)c3ccncc3)c2F)c1` [Example 89, N-({4-chloro-3-[(3-chloro-5-cyanophenyl)oxy]-2-fluorophenyl}methyl)-4-pyridinecarboxamide trifluoroacetate] is 10 to 1000 nM.
Same read-out and setting: the figure for `CS(=O)(=O)c1ccc(C(=O)NCc2ccc(Cl)c(Oc3cc(Cl)cc(C#N)c3)c2F)c(Cl)c1` [Example 16, 2-chloro-N-({4-chloro-3-[(3-chloro-5-cyanophenyl)oxy]-2-fluorophenyl}methyl)-4-(methylsulfonyl)benzamide] is 10 to 1000 nM; for `N#Cc1cc(Cl)cc(Oc2c(Cl)ccc(CNC(=O)c3nc4ccccc4[nH]3)c2F)c1` [Example 35, N-({4-chloro-3-[(3-chloro-5-cyanophenyl)oxy]-2-fluorophenyl}methyl)-1H-benzimidazole-2-carboxamide] it is below 10 nM.
In the case of `N#Cc1cc(Cl)cc(Oc2c(Cl)ccc(CNC(=O)c3cc4cc(NC(=O)CN)ccc4[nH]3)c2F)c1` [Example 120, N-({4-chloro-3-[(3-chloro-5-cyanophenyl)oxy]-2-fluorophenyl}methyl)-5-(glycylamino)-1H-indole-2-carboxamide trifluoroacetate], the IC50 was below 10 nM.
The same measure, in the same setting: for `N#Cc1cc(Cl)cc(Oc2c(Cl)ccc(CNC(=O)c3cc4cc(NC(=O)c5ccncc5)ccc4[nH]3)c2F)c1` [Example 114, N-({4-chloro-3-[(3-chloro-5-cyanophenyl)oxy]-2-fluorophenyl}methyl)-5-[(4-pyridinylcarbonyl)amino]-1H-indole-2-carboxamide] the value was below 10 nM; for `N#Cc1cc(Cl)cc(Oc2c(Cl)ccc(CNC(=O)c3snnc3-c3ccccc3)c2F)c1` [Example 99, N-({4-chloro-3-[(3-chloro-5-cyanophenyl)oxy]-2-fluorophenyl}methyl)-4-phenyl-1,2,3-thiadiazole-5-carboxamide], above 1000 nM.
Still for that read-out and setting: for `N#Cc1cc(Cl)cc(Oc2c(Cl)ccc(CNC(=O)c3cc4cccc(N)c4[nH]3)c2F)c1` [Example 113, 7-amino-N-({4-chloro-3-[(3-chloro-5-cyanophenyl)oxy]-2-fluorophenyl}methyl)-1H-indole-2-carboxamide] the value was below 10 nM.
Still for that read-out and setting: for `CC(C)c1nc(Cl)c(C(=O)NCc2ccc(Cl)c(Oc3cc(Cl)cc(C#N)c3)c2F)[nH]1` [Example 135, 4-chloro-N-({4-chloro-3-[(3-chloro-5-cyanophenyl)oxy]-2-fluorophenyl}methyl)-2-(1-methylethyl)-1H-imidazole-5-carboxamide trifluoroacetate] the value was below 10 nM.
